Here are results for eight molecules from patent US7482379B2, “Propenoyl hydrazides” (priority 2004, dated 2009).

One test has as its target T1, Caspase-3 (Homo sapiens, UniProt P42574).
T1 sequence (P42574 29-175 limits assumed): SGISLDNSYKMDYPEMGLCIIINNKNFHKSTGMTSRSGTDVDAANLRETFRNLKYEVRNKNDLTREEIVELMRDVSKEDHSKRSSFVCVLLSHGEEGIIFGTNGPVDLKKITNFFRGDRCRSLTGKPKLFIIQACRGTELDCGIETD
T1 sequence (P42574 176-277 limits assumed): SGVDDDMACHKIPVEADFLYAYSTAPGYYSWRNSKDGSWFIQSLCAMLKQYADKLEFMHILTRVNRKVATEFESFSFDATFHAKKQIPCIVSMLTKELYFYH
Kind of test: Caspase-3 progress curve inhibition assay. The conditions noted are these: second-order rate constant; Ac-DEVD-AMC substrate; Pipes buffer pH 7.2.

Another test deals with T2, Caspase-2 (Homo sapiens, UniProt P42575).
T2 sequence (P42575 170-333 limits assumed): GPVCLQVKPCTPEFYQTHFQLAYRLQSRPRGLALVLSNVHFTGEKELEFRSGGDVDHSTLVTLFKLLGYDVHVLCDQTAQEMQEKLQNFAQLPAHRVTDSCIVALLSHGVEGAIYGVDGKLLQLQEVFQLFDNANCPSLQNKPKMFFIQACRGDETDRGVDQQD
T2 sequence (P42575 348-452 limits assumed): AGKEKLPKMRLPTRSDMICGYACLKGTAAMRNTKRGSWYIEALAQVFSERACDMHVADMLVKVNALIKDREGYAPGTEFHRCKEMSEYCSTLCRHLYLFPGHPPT
As to the kind of experiment: Caspase-2 progress curve inhibition assay. The following applies: second-order rate constant; Cbz-VDVAD-AFC substrate; Pipes buffer pH 7.2.

The target of the next test is T3, Caspase-10 (Homo sapiens, UniProt Q92851).
T3 sequence (Q92851 220-415 limits assumed): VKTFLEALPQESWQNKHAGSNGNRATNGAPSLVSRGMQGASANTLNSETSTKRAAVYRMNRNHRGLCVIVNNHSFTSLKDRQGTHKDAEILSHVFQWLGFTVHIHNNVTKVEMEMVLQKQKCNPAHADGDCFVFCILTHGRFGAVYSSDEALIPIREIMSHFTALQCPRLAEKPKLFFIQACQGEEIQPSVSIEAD
T3 sequence (Q92851 416-521 limits assumed): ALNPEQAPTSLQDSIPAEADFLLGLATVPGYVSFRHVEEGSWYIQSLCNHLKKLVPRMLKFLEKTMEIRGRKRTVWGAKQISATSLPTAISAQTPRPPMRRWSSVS
Kind of test: Caspase-10 progress curve inhibition assay. The following applies: second-order rate constant; Ac-DEVD-AMC substrate; Hepes/PEG buffer pH 7.0.

The next test addresses T4, Caspase-6 (Homo sapiens, UniProt P55212).
T4 sequence (P55212 24-179 limits assumed): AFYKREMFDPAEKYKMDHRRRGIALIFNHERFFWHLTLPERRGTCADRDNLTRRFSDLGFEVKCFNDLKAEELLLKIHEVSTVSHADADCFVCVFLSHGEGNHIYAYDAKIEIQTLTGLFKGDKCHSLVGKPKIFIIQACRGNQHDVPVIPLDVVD
T4 sequence (P55212 194-293 limits assumed): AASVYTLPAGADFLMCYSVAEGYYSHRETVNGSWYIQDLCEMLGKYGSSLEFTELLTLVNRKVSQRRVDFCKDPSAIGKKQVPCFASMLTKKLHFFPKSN
As to the kind of experiment: Caspase-6 progress curve inhibition assay. The conditions noted are these: second-order rate constant; Ac-DEVD-AMC substrate; Pipes buffer pH 7.2.

Another test deals with Caspase-8 (Homo sapiens, UniProt Q14790). Kind of test: Caspase-8 progress curve inhibition assay. The following applies: second-order rate constant; Ac-DEVD-AMC substrate; Pipes buffer pH 7.2.
Caspase-8, sequence (Q14790 217-374 limits assumed): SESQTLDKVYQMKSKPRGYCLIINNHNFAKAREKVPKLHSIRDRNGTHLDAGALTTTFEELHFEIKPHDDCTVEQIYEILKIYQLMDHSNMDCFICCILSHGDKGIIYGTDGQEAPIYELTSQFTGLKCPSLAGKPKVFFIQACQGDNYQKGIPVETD
Caspase-8, sequence (Q14790 385-479 limits assumed): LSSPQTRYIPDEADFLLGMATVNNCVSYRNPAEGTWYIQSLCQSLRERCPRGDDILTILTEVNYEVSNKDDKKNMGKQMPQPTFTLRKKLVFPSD
The target in another test is T5, Caspase-9 (Homo sapiens, UniProt P55211).
T5 sequence (P55211 1-315 limits assumed): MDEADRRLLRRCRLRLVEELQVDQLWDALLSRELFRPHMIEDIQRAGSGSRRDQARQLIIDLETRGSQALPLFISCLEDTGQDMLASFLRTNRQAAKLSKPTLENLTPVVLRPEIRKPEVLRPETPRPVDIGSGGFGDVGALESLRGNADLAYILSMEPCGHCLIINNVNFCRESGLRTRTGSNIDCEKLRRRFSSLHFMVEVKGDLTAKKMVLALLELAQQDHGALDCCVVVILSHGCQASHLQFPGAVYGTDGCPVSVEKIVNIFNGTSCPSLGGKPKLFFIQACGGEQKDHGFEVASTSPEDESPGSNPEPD
T5 sequence (P55211 331-416 limits assumed): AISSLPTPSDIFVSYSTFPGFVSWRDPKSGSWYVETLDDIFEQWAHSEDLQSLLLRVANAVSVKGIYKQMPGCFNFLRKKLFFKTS
As to the kind of experiment: Caspase-9 progress curve inhibition assay. The conditions noted are these: second-order rate constant; Ac-LEHD-AFC substrate; Hepes buffer pH 7.0 with 0.7 M sodium citrate.

The next test addresses T6, Caspase-7 (Homo sapiens, UniProt P55210).
T6 sequence (P55210 24-198 limits assumed): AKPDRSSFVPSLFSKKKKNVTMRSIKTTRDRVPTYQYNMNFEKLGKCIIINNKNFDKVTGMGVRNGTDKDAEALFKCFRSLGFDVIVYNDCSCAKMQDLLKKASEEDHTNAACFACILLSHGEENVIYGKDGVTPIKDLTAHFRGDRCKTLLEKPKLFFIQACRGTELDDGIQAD
T6 sequence (P55210 207-303 limits assumed): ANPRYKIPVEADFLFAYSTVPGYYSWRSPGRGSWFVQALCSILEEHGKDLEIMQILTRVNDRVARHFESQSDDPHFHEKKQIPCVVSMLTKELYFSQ
Kind of test: Caspase-7 progress curve inhibition assay. The following applies: second-order rate constant; Ac-DEVD-AMC substrate; Pipes buffer pH 7.2.

Structures are written as SMILES.

Procedure for Caspase-10: Caspase-2, -3, -6, -7, -8, -9 and -10. Caspases-2, -3, -6, -7, -8, -9 and -10 were expressed in E. coli and purified in Guy Salvesen's laboratory at the Burnham Institute, La Jolla, Calif., according to the methods known in the art. Inhibition rates were determined by the progress curve method known in the art. This method is suitable for measuring irreversible inhibition rates with fast inhibitors, where the inhibitor, the substrate and the enzyme are incubated together and the rate of substrate hydrolysis is measured continuously. The rate of substrate hydrolysis in the presence of the inhibitor was monitored for 20 minutes. The progress curve of inhibition, where the product formation approaches an asymptote is described in the equation ln([P∞]−[P])=ln[P∞]−A[I]t where [P] and [P∞] are the product concentrations at t and t=∞ respectively, A is the apparent rate constant in the presence of the substrate. The apparent rate constants were determined from the slopes of plots of ln ([P∞]−[P]) versus time (t) in seconds as previously described, where A=slope/[I].
(§1) For competitive and irreversible inhibition, the apparent rate constant is converted to the second order rate constant k2 by taking into consideration the effect of the substrate concentration on the apparent rate constant. The second order rate constant is described as in the equation: k2=A*(1+[S]/KM)
Assay buffer is a 1:1 mixture of buffer (200 mM Hepes, 0.2% (w/v) CHAPS, PEG 20% (w/v)) and 20 mM DTT solution in H2O at pH 7.0). The enzyme was pre-activated for 10 min at 25° C. in the assay buffer.
Procedure for Caspase-2: Inhibition rates were determined by the progress curve method known in the art. This method is suitable for measuring irreversible inhibition rates with fast inhibitors, where the inhibitor, the substrate and the enzyme are incubated together and the rate of substrate hydrolysis is measured continuously. The rate of substrate hydrolysis in the presence of the inhibitor was monitored for 20 minutes. The progress curve of inhibition, where the product formation approaches an asymptote is described in the equation ln([P∞]−[P])=ln[P∞]−A[I]t where [P] and [P∞] are the product concentrations at t and t=∞ respectively, A is the apparent rate constant in the presence of the substrate. The apparent rate constants were determined from the slopes of plots of ln ([P∞]−[P]) versus time (t) in seconds as previously described, where A=slope/[I].
as §1
The concentration of the caspase-3 stock solution was 2 nM in the assay buffer. Assay buffer is a 1:1 mixture of caspase buffer (40 mM Pipes, 200 mM NaCl, 0.2% (w/v) CHAPS, sucrose 20% (w/v)) and 20 mM DTT solution in H2O at pH 7.2. The concentration of the substrate stock solution was 2 mM in DMSO. The enzyme was pre-activated for 10 min at 37° C. in the assay buffer. […] 50 μL of 2 nM enzyme stock solution (final concentration: 1 nM) was added to the mixture after 1 min and reading started immediately for 20 min at 37° C. Inhibition experiments were repeated in duplicate and standard deviations determined.
The inhibitor stock solution concentrations varied from 5×10^−3 M to 1×10^−4 M in DMSO.
Procedure for Caspase-9: Caspases-2, -3, -6, -7, -8, -9 and -10 were expressed in E. coli and purified in Guy Salvesen's laboratory at the Burnham Institute, La Jolla, Calif., according to the methods known in the art. Inhibition rates were determined by the progress curve method known in the art. This method is suitable for measuring irreversible inhibition rates with fast inhibitors, where the inhibitor, the substrate and the enzyme are incubated together and the rate of substrate hydrolysis is measured continuously. The rate of substrate hydrolysis in the presence of the inhibitor was monitored for 20 minutes. The progress curve of inhibition, where the product formation approaches an asymptote is described in the equation ln([P∞]−[P])=ln[P∞]−A[I]t where [P] and [P∞] are the product concentrations at t and t=∞ respectively, A is the apparent rate constant in the presence of the substrate. The apparent rate constants were determined from the slopes of plots of ln ([P∞]−[P]) versus time (t) in seconds as previously described, where A=slope/[I].
as §1
Assay buffer is a 1:1 mixture of buffer (200 mM Hepes, 100 mM NaCl, 0.02% (w/v) CHAPS, sucrose 20% (w/v)) and 20 mM DTT solution in H2O at pH 7.0). The assay buffer was supplemented with 0.7 M sodium citrate. The enzyme was pre-activated for 10 min at 37° C. in the assay buffer.

For `CC[C@H](C)[C@H](NC(=O)OCc1ccccc1)C(=O)N[C@@H](CCC(=O)O)C(=O)N[C@H](C(=O)NN(CC(=O)O)C(=O)/C=C/C(=O)NCc1ccccc1)[C@@H](C)O` (relative stereo) [Cbz-Ile-Glu-Thr-AAsp-CH═CH—CONHCH2Ph, N^1-trans-(3-Benzylcarbamoylpropenoyl)-N^2—(N-benzyloxycarbonylisoleucylglutamylthreonyl)-N^1-carboxylmethylhydrazine], the “k2 Caspase-3” value at Caspase-3 is 2,250 M^−1s^−1. Further, at Caspase-2, the “k2 Caspase-2” value is 15 M⁻¹ s⁻¹. Besides, the “k2 Caspase-10” value on Caspase-10 turned out to be 503 M⁻¹ s⁻¹. Also, the “k2 Caspase-6” value on Caspase-6 is on record as 16,800 M^−1s^−1. For the same molecule, the “k2 Caspase-8” value on Caspase-8 was 61,300 M^−1s^−1. Moreover, the “k2 Caspase-9” value on Caspase-9 was 440 M⁻¹ s⁻¹. For the same molecule, the “k2 Caspase-7” value on Caspase-7 turned out to be 100 M⁻¹ s⁻¹.

As to `CC(C)C[C@H](NC(=O)OCc1ccccc1)C(=O)N[C@@H](CCC(=O)O)C(=O)N[C@H](C(=O)NN(CC(=O)O)C(=O)/C=C/C(=O)N(Cc1ccccc1)Cc1ccccc1)[C@@H](C)O` (relative stereo) [Cbz-Leu-Glu-Thr-AAsp-CH═CH—CON(CH2Ph)2, N^2—(N-Benzyloxycarbonylleucylglutamylthreonyl)-N^1-carboxylmethyl-N^1-trans-(3-dibenzylcarbamoylpropenoyl)hydrazine], at Caspase-3, the “k2 Caspase-3” value is reported as 8,630 M^−1s^−1. Also, the “k2 Caspase-2” value on Caspase-2 worked out at 110 M⁻¹ s⁻¹. The “k2 Caspase-10” value at Caspase-10 was 8,080 M^−1s^−1. Further, on Caspase-6, the “k2 Caspase-6” value is on record as 14,100 M^−1s^−1. Also, the “k2 Caspase-8” value at Caspase-8 was 129,000 M^−1s^−1. For the same molecule, the “k2 Caspase-9” value at Caspase-9 was 1,105 M^−1s^−1. Moreover, on Caspase-7, the “k2 Caspase-7” value came out at 760 M⁻¹ s⁻¹.

With `CC[C@H](C)[C@H](NC(=O)OCc1ccccc1)C(=O)N[C@@H](CCC(=O)O)C(=O)N[C@H](C(=O)NN(CC(=O)O)C(=O)/C=C/C(=O)N(C)Cc1ccccc1)[C@@H](C)O` (relative stereo) [Cbz-Ile-Glu-Thr-AAsp-CH═CH—CON(CH3)CH2Ph, N^1-trans-(3-Benzylmethylcarbamoylpropenoyl)-N^2—(N-benzyloxycarbonylisoleucylglutamylthreonyl)-N^1-carboxylmethylhydrazine], the “k2 Caspase-3” value on Caspase-3 was 6,000 M^−1s^−1. The “k2 Caspase-2” value on Caspase-2 worked out at 95 M⁻¹ s⁻¹. The “k2 Caspase-10” value on Caspase-10 is 8,500 M^−1s^−1. In addition, the “k2 Caspase-6” value on Caspase-6 is listed as 45,900 M^−1s^−1. Further, the “k2 Caspase-8” value at Caspase-8 is reported as 59,700 M^−1s^−1. Moreover, at Caspase-9, the “k2 Caspase-9” value is 845 M⁻¹ s⁻¹. Moreover, the “k2 Caspase-7” value on Caspase-7 was 390 M⁻¹ s⁻¹.

Take `CC(C)C[C@H](NC(=O)OCc1ccccc1)C(=O)N[C@@H](CCC(=O)O)C(=O)N[C@H](C(=O)NN(CC(=O)O)C(=O)/C=C/C(=O)N(C)Cc1ccccc1)[C@@H](C)O` (relative stereo) [Cbz-Leu-Glu-Thr-AAsp-CH═CH—CON(CH3)CH2Ph, N^1-trans-(3-Benzylmethylcarbamoylpropenoyl)-N^2—(N-benzyloxycarbonylleucylglutamylthreonyl)-N^1-carboxylmethylhydrazine]: on Caspase-3, the “k2 Caspase-3” value is 6,000 M^−1s^−1. Further, the “k2 Caspase-2” value at Caspase-2 was 140 M⁻¹ s⁻¹. Further, the “k2 Caspase-10” value on Caspase-10 is recorded as 8,430 M^−1s^−1. For the same molecule, the “k2 Caspase-6” value on Caspase-6 was 10,800 M^−1s^−1. In addition, the “k2 Caspase-8” value at Caspase-8 is listed as 169,000 M^−1s^−1. Also, the “k2 Caspase-9” value on Caspase-9 is reported as 4,320 M^−1s^−1. Further, the “k2 Caspase-7” value on Caspase-7 amounted to 520 M⁻¹ s⁻¹.

For the molecule `CCOC(=O)/C=C/C(=O)N(CC(=O)O)NC(=O)[C@@H](NC(=O)[C@H](CCC(=O)O)NC(=O)[C@@H](NC(=O)OCc1ccccc1)C(C)C)C(C)C` (relative stereo) [Cbz-Val-Glu-Val-AAsp-CH═CH—COOEt, N^2—(N-Benzyloxycarbonylvalylglutamylvalyl)-N^1-carboxymethyl-N^1-trans-(3-ethoxycarbonylpropenoyl)hydrazine], the “k2 Caspase-3” value at Caspase-3 is recorded as 41,200 M^−1s^−1. The “k2 Caspase-2” value on Caspase-2 turned out to be 115 M⁻¹ s⁻¹. Also, the “k2 Caspase-10” value at Caspase-10 is listed as 6,600 M^−1s^−1. Also, the “k2 Caspase-6” value on Caspase-6 is reported as 83,600 M^−1s^−1. Also, the “k2 Caspase-8” value on Caspase-8 is listed as 175,800 M^−1s^−1. On Caspase-9, the “k2 Caspase-9” value was 340 M⁻¹ s⁻¹. The “k2 Caspase-7” value on Caspase-7 is on record as 3,650 M^−1s^−1.

For the molecule `CC[C@H](C)[C@H](NC(=O)OCc1ccccc1)C(=O)N[C@@H](CCC(=O)O)C(=O)N[C@H](C(=O)NN(CC(=O)O)C(=O)/C=C/C(=O)NCCc1ccccc1)[C@@H](C)O` (relative stereo) [Cbz-Ile-Glu-Thr-AAsp-CH═CH—CONHCH2CH2Ph, N^2—(N-BenzyloxycarbonylisoleucylglutamyIthreonyl)-N^1-carboxylmethyl-N^1-trans-(3-phenyethylcarbamoylpropenoyl)hydrazine], the “k2 Caspase-3” value at Caspase-3 is 4,750 M^−1s^−1. Further, on Caspase-2, the “k2 Caspase-2” value was found to be 30 M⁻¹ s⁻¹. Also, the “k2 Caspase-10” value at Caspase-10 was 8,290 M^−1s^−1. For the same molecule, the “k2 Caspase-6” value on Caspase-6 is reported as 18,700 M^−1s^−1. Moreover, the “k2 Caspase-8” value on Caspase-8 is 71,000 M^−1s^−1. The “k2 Caspase-9” value at Caspase-9 was 615 M⁻¹ s⁻¹. The “k2 Caspase-7” value on Caspase-7 was found to be 440 M⁻¹ s⁻¹.

Consider `CC(C)[C@H](NC(=O)[C@H](CCC(=O)O)NC(=O)[C@H](CC(=O)O)NC(=O)OCc1ccccc1)C(=O)NN(CC(=O)O)C(=O)/C=C/C(=O)NCCc1ccccc1` (relative stereo) [Cbz-Asp-Glu-Val-AAsp-CH═CH—CONHCH2CH2Ph, N^2—(N-Benzyloxycarbonylaspartylglutamylvalyl)-N^1-carboxymethyl-N^1-trans-(3-phenethylcarbamoylpropenoyl)hydrazine], for which the “k2 Caspase-3” value at Caspase-3 was 1,950,000 M^−1s^−1. The “k2 Caspase-2” value at Caspase-2 is 120 M⁻¹ s⁻¹. Moreover, the “k2 Caspase-10” value at Caspase-10 was 31,400 M^−1s^−1. Further, at Caspase-6, the “k2 Caspase-6” value is given as 3,470 M^−1s^−1. Also, the “k2 Caspase-8” value at Caspase-8 was 129,000 M^−1s^−1. For the same molecule, the “k2 Caspase-9” value on Caspase-9 amounted to 655 M⁻¹ s⁻¹. For the same molecule, on Caspase-7, the “k2 Caspase-7” value was 267,000 M^−1s^−1.

Regarding `CC(C)[C@H](NC(=O)[C@H](CCC(=O)O)NC(=O)[C@H](CC(=O)O)NC(=O)OCc1ccccc1)C(=O)NN(CC(=O)O)C(=O)C=CC(=O)N(Cc1cccc2ccccc12)Cc1cccc2ccccc12`, the “k2 Caspase-3” value at Caspase-3 is reported as 5,620,000 M^−1s^−1. Also, the “k2 Caspase-2” value at Caspase-2 came out at 410 M⁻¹ s⁻¹. The “k2 Caspase-10” value on Caspase-10 is recorded as 32,500 M^−1s^−1. The “k2 Caspase-6” value at Caspase-6 is on record as 29,700 M^−1s^−1. In addition, the “k2 Caspase-8” value on Caspase-8 is 9,460 M^−1s^−1. For the same molecule, on Caspase-9, the “k2 Caspase-9” value came out at 150 M⁻¹ s⁻¹. For the same molecule, the “k2 Caspase-7” value on Caspase-7 is listed as 875,000 M^−1s^−1.
